Measured values from BindingDB's records for doi:10.1016/j.bmcl.2012.07.086 (Shandong Academy of Sciences, 2012).

Biological target: T1, Aminopeptidase N (Sus scrofa, UniProt P15145)
T1 sequence (P15145 whole entry): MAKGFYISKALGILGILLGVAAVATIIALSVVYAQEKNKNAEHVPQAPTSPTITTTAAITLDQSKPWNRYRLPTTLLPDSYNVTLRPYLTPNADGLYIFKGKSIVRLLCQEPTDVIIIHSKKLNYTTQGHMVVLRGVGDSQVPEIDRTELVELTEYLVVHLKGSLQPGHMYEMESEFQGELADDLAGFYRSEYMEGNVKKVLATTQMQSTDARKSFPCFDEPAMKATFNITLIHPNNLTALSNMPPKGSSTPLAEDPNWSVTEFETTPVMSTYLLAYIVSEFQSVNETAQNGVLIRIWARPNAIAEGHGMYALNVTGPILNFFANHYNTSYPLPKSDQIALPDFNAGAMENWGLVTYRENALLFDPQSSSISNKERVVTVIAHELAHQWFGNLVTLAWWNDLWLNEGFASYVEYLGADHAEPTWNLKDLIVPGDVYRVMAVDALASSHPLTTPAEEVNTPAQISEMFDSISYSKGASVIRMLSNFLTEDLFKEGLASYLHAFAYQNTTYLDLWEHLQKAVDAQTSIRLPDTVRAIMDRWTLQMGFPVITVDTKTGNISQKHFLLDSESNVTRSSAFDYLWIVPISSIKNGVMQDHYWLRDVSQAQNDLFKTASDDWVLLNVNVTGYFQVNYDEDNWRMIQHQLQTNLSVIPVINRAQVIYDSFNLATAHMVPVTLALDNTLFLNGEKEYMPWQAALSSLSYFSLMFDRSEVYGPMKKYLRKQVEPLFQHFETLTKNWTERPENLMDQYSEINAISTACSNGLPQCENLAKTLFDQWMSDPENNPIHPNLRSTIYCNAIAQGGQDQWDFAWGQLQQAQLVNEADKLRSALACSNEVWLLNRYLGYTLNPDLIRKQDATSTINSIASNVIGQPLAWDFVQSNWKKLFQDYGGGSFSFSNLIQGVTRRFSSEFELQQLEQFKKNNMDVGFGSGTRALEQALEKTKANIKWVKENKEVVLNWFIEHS
Experiment: Inhibition of porcine kidney microsome aminopeptidase using L-Leu-p-nitroanilide as substrate after 30 mins

Row | Structure (SMILES) | IC50 [µM]
1 | O=C1NC(=O)C(N=Nc2cc([N+](=O)[O-])ccc2O)C(=O)N1 | > 1000
2 | Cc1cc(C/N=N/c2ccc([N+](=O)[O-])cc2[N+](=O)[O-])c(C)n1-c1ccc(S(N)(=O)=O)cc1 | > 1000
